Key:
Assay type in all cases: in vivo
[1] = test system: barnyardgrass (Echinochloa crus-galli L.): ECHCG; assay: Test Example 1 pre-emergence herbicidal activity, ECHCG; settings: visually observed 20th to 23rd day after application
How it was run: (§1)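 Read-out: visual growth control (%, 0–100, 100 = complete kill) assessed 20 to 23 days post-treatment. Compound was applied pre-emergence by small sprayer, one day after sowing into upland soil pots, in 500 L/ha water.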

[2] = test system: crabgrass (Digitaria sanguinalis L.): DIGSA; assay: Test Example 1 pre-emergence herbicidal activity, DIGSA; settings: visually observed 20th to 23rd day after application
How it was run: as §1

[3] = test system: green foxtail (Setaria viridis L.): SETVI; assay: Test Example 1 pre-emergence herbicidal activity, SETVI; settings: visually observed 20th to 23rd day after application
How it was run: as §1

[4] = test system: prickly sida (Sida spinosa L.): SEDSP; assay: Test Example 1 pre-emergence herbicidal activity, SIDSP; settings: Rate 125 g a.i./ha, visually observed 20th to 23rd day after application
How it was run: as §1

[5] = test system: velvetleaf (Abutilon theophrasti): ABUTH; assay: Test Example 1 pre-emergence herbicidal activity, ABUTH; settings: visually observed 20th to 23rd day after application
How it was run: as §1

[6] = test system: rice (Oryza sativa L.): ORYSA; assay: Test Example 1 pre-emergence herbicidal activity, ORYSA; settings: visually observed 20th to 23rd day after application
How it was run: as §1

[7] = test system: wheat (Triticum aestivum L.): TRZAX; assay: Test Example 1 pre-emergence herbicidal activity, TRZAX; settings: visually observed 20th to 23rd day after application
How it was run: as §1

[8] = test system: corn (Zea mays L.): ZEAMX; assay: Test Example 1 pre-emergence herbicidal activity, ZEAMX; settings: visually observed 20th to 23rd day after application
How it was run: as §1

[9] = test system: soybean (Glycine max Merr.): GLXMA; assay: Test Example 1 pre-emergence herbicidal activity, GLXMA; settings: visually observed 20th to 23rd day after application
How it was run: as §1

[10] = test system: barnyardgrass (Echinochloa crus-galli L.), ECHCG; assay: Test Example 2 post-emergence (foliage treatment) herbicidal activity, ECHCG; settings: 63 g a.i./ha
How it was run: (§2)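 Post-emergence, upland soil pots; leaf stage at spray: ECHCG 1.1-2.1 / DIGSA 1.0-2.0 / AMARE 0.1-1.5 / ORYSA 1.0-2. WP or EC formulation, set active ingredient rate, 500 L/ha water + 0.1% v/v spreader. Visual rating at d20-23, % control 0-100.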

[11] = test system: crabgrass (Digitaria sanguinalis L.), DIGSA; assay: Test Example 2 post-emergence (foliage treatment) herbicidal activity, DIGSA; settings: 63 g a.i./ha
How it was run: as §2

[12] = test system: green foxtail (Setaria viridis L.), SETVI; assay: Test Example 2 post-emergence (foliage treatment) herbicidal activity, SETVI; settings: 63 g a.i./ha
How it was run: (§3)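 A small sprayer delivered the diluted WP or EC formulation (500 L/ha water, 0.1% v/v spreader) over emerged seedlings in upland soil pots. Damage relative to untreated plants was graded visually from 0 to 100% three weeks or so later (days 20-23).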

[13] = test system: redroot pigweed (Amaranthus retroflexus L.), AMARE; assay: Test Example 2 post-emergence (foliage treatment) herbicidal activity, AMARE; settings: 63 g a.i./ha
How it was run: as §2

[14] = test system: prickly sida (Sida spinosa L.), SIDSP; assay: Test Example 2 post-emergence (foliage treatment) herbicidal activity, SIDSP; settings: 63 g a.i./ha
How it was run: as §3

[15] = test system: velvetleaf (Abutilon theophrasti), ABUTH; assay: Test Example 2 post-emergence (foliage treatment) herbicidal activity, ABUTH; settings: 63 g a.i./ha
How it was run: as §3

[16] = test system: rice (Oryza sativa L.), ORYSA; assay: Test Example 2 post-emergence (foliage treatment) herbicidal activity, ORYSA; settings: 63 g a.i./ha
How it was run: as §2

[17] = test system: wheat (Triticum aestivum L.), TRZAX; assay: Test Example 2 post-emergence (foliage treatment) herbicidal activity, TRZAX; settings: 63 g a.i./ha
How it was run: as §3

[18] = test system: corn (Zea mays L.), ZEAMX; assay: Test Example 2 post-emergence (foliage treatment) herbicidal activity, ZEAMX; settings: 63 g a.i./ha
How it was run: as §3

[19] = test system: soybean (Glycine max Merr.), GLXMA; assay: Test Example 2 post-emergence (foliage treatment) herbicidal activity, GLXMA; settings: 63 g a.i./ha
How it was run: as §3

[20] = test system: barnyardgrass (Echinochiloa oryzicola: ECHOR); assay: Test Example 3 water application herbicidal activity (paddy), ECHOR; settings: 63 g a.i./ha, water application under submerged condition at 0.5 leaf stage, visually observed 14th day after application; 0 = untreated control, 100 = complete kill
From the text: (§4) Paddy field soil was put into a 1/1,000,000 ha pot and seeds of barnyardgrass (Echinochiloa oryzicola: ECHOR) and japanese bulrush (Scirpus juncoides: SCPJO) were sown and slightly covered with soil. Then the pot was left to stand still in a greenhouse in a state where the depth of flooding water was from 0.5 to 1 cm, and one day later, tubers of japanese ribbon wapato (Sagittaria pygmaea: SA GPY) were planted. Thereafter, the depth of flooding water was maintained at a level of from 3 to 4 cm, and when barnyardgrass and japanese bulrush reached a 0.5 leaf stage, an aqueous diluted solution of a wettable powder or emulsifiable concentrate having the compound of the present invention formulated in accordance with a usual formulation method, was uniformly applied under submerged condition by a pipette so that the dose of the active ingredient would be at a predetermined level. On the other hand, paddy filed soil was put into a 1/1,000,000 ha pot and puddled and leveled, and the depth of flooding water was from 3 to 4 cm. One day later, rice (Oryza sativa L.: ORYSA) of 2 leaf stage was transplanted in a depth of 3 cm. On the 4th day after the transplantation, the compound of the present invention was applied in the same manner as described above. On the 14th day after the application of the herbicide, the growth of barnyardgrass, japanese burlush and japanese ribbon wapato was visually observed and on the 21st day after the application of the herbicide, the growth of rice was visually observed, and the herbicidal effects were evaluated by growth controlling degrees (%) ranging from 0 (equivalent to the untreated control) to 100 (complete kill), whereby the results shown in Table 6, were obtained. Compound Nos. in Table 6 correspond to Compound Nos. in Table 1 and 2 given hereinbefore.

[21] = test system: japanese bulrush (Scirpus juncoides: SCPJO); assay: Test Example 3 water application herbicidal activity (paddy), SCPJO; settings: 63 g a.i./ha, water application under submerged condition at 0.5 leaf stage, visually observed 14th day after application; 0 = untreated control, 100 = complete kill
From the text: as §4

[22] = test system: japanese ribbon wapato (Sagittaria pygmaea: SA GPY); assay: Test Example 3 water application herbicidal activity (paddy), SAGPY; settings: 63 g a.i./ha, water application under submerged condition, tubers planted, visually observed 14th day after application; 0 = untreated control, 100 = complete kill
From the text: as §4

[23] = test system: rice (Oryza sativa L.: ORYSA); assay: Test Example 3 water application herbicidal activity (paddy), transplanted rice ORYSA; settings: 63 g a.i./ha, water application 4th day after transplantation of 2 leaf stage rice, visually observed 21st day after application; 0 = untreated control, 100 = complete kill
From the text: as §4

[24] = test system: redroot pigweed (Amaranthus retroflexus L.): AMARE; assay: Test Example 1 pre-emergence herbicidal activity, AMARE; settings: Rate 63 g a.i./ha, visually observed 20th to 23rd day after application
How it was run: as §1

SMILES | growth controlling degree, ECHCO [10] [%] | growth controlling degree, DIGSP [11] [%] | growth controlling degree, AMARE [13] [%] | growth controlling degree, SIDSP [14] [%] | growth controlling degree, ABUTH [15] [%] | growth controlling degree, ORYSA [16] [%] | growth controlling degree, TRZAX [17] [%] | growth controlling degree, ZEAMX [18] [%] | growth controlling degree, GLXMA [19] [%] | growth controlling degrees (%) ECHOR [20] [%] | growth controlling degrees (%) SCPJO [21] [%] | growth controlling degrees (%) SAGPY [22] [%] | growth controlling degrees (%) ORYSA [23] [%] | further results
CCOC(=O)CN(C=O)c1c(OC)c(Cl)cc(F)c1-c1nn(C)c(OC(F)F)c1Cl [Compound 1-19] | 30 | 30 | 100 | 90 | 90 | 20 | 10 | 0 | 60 | 70 | 30 | 20 | 30 | Pre-emergence Herbicidal Activity ECHCG (growth controlling degree) ([1]; Rate 125 g a.i./ha): 0%; Pre-emergence Herbicidal Activity DIGSP (growth controlling degree) ([2]; Rate 125 g a.i./ha): 50%; Pre-emergence Herbicidal Activity SETVI (growth controlling degree) ([3]; Rate 125 g a.i./ha): 10%; Pre-emergence Herbicidal Activity SIDSP (growth controlling degree) [4]: 50%; Pre-emergence Herbicidal Activity ABUTH (growth controlling degree) ([5]; Rate 125 g a.i./ha): 20%; Pre-emergence Herbicidal Activity ORYSA (growth controlling degree) ([6]; Rate 125 g a.i./ha): 0%; Pre-emergence Herbicidal Activity TRZAX (growth controlling degree) ([7]; Rate 125 g a.i./ha): 0%; Pre-emergence Herbicidal Activity ZEAMX (growth controlling degree) ([8]; Rate 125 g a.i./ha): 20%; Pre-emergence Herbicidal Activity GLXMA (growth controlling degree) ([9]; Rate 125 g a.i./ha): 0%; growth controlling degree, SETVI [12]: 30%
CCOC(=O)Nc1c(OC)c(Cl)cc(F)c1-c1nn(C)c(OC(F)F)c1Cl [Compound 1-273] | 30 | 20 | 100 | 90 | 98 | 10 | 20 | 10 | 60 | 70 | 0 | 0 | 30 | Pre-emergence Herbicidal Activity ECHCG (growth controlling degree) ([1]; Rate 63 g a.i./ha): 0%; Pre-emergence Herbicidal Activity DIGSP (growth controlling degree) ([2]; Rate 63 g a.i./ha): 30%; Pre-emergence Herbicidal Activity SETVI (growth controlling degree) ([3]; Rate 63 g a.i./ha): 20%; Pre-emergence Herbicidal Activity AMARE (growth controlling degree) [24]: 80%; Pre-emergence Herbicidal Activity ABUTH (growth controlling degree) ([5]; Rate 63 g a.i./ha): 10%; Pre-emergence Herbicidal Activity ORYSA (growth controlling degree) ([6]; Rate 63 g a.i./ha): 10%; Pre-emergence Herbicidal Activity TRZAX (growth controlling degree) ([7]; Rate 63 g a.i./ha): 0%; Pre-emergence Herbicidal Activity ZEAMX (growth controlling degree) ([8]; Rate 63 g a.i./ha): 0%; Pre-emergence Herbicidal Activity GLXMA (growth controlling degree) ([9]; Rate 63 g a.i./ha): 0%

From patent publication US20050245399A1, “Pyrazole derivatives as herbicidal compositions containing them” (ISHIHARA SANGYO KAISHA, LTD., priority 2004, published 2005)
